The values that follow come from patent US11312758B2, “Peptides with vasodilatory and/or diuretic functions” (National University of Singapore, priority 2016, dated 2022).

Values joined by “and” are separate entries in the source; they are usually repeats but may differ in a detail not shown here. Equal values may be shown once. Positions of bridges follow the written chain, without caps; N, C: chain ends. Residues, ends and D or L forms follow the SMILES beside them.

In assay [1] the target is T1, rat NPR-A (Rattus norvegicus, UniProt P18910).
T1 construct: expressed in transfected cells; host or cells: CHO-K1
T1 sequence (P18910 29-1057): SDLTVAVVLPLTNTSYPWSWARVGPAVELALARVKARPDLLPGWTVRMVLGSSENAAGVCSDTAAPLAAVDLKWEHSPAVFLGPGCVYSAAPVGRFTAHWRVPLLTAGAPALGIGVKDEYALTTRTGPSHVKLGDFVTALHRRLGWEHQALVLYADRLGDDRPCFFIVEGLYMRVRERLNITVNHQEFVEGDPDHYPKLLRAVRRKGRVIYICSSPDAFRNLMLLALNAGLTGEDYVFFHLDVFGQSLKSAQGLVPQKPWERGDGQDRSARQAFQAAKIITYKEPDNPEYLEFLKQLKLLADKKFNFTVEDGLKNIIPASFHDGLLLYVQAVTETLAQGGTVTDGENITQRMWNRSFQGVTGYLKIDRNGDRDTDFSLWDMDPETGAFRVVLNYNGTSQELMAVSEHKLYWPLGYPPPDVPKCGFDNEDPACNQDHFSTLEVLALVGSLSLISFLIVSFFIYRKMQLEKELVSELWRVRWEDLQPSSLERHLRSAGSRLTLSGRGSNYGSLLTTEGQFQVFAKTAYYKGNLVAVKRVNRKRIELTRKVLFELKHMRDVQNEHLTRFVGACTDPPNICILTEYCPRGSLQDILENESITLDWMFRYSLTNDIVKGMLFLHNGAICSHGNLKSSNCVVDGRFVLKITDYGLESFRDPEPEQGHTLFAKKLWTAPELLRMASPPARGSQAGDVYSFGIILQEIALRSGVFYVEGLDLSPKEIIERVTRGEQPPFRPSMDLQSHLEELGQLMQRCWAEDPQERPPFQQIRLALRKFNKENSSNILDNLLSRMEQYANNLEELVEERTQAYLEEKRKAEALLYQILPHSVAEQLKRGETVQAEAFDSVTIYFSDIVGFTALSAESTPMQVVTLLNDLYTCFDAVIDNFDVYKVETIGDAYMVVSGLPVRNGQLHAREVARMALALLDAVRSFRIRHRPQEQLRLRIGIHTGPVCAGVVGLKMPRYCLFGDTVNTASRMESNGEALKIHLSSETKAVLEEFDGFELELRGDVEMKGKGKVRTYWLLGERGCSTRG
The experiment in a line: Time-chase study of cGMP accumulation (NPR-A activation kinetics) at EC50 concentration of peptide. The assay is classed as cell-based. As for the experimental part: (§1) The experiments were performed as described in Sridharan et al., [Biochem J 469 (2): 255-66 (2015)]. Dulbecco's modified Eagle's medium supplemented with 10% fetal bovine serum, 100 U/ml penicillin and 100 μg/ml streptomycin and 2 mM glutamine was used to grow CHO-K1 cells in a humidified incubator at 37° C. with 5% CO2. The cells were maintained by sub-culturing using 0.5% trypsin every three days. Cells (1×10^5) were seeded per well in 24-well plate and grown for 16 h. Cells in each well were transfected with 0.8 μg of plasmid encoding rat NPR-A using 2 μl of Lipofectamine™ 2000 transfection reagent. Cells were treated with the peptides 24 h after transfection.
Time-chase study was performed by treating the cells with EC50 concentration of the peptides. The reactions were terminated at the indicated time-points (0, 2, 5, 10, 20 and 30 min) by treating the cells with 0.1 N HCl. The cGMP concentration in the cell lysate was measured using cGMP ELISA kit (Enzo life sciences).

In assay [2] the target is T1, rat NPR-A. Kind of assay: Whole cell cGMP assay, 30 min end-point dose-response in CHO-K1 cells transiently expressing NPR-A. Format: cell-based. The conditions noted are these: for NPR-A activation potency, Ratio compared wild type NPs: negative = more potent than wild type. As for the experimental part: as §1
NPR-A transfected CHO-K1 cells were treated with varying concentrations of peptides (10 nM to 10 μM dissolved in basal media containing 0.5 mM IBMX) for 30 min. The end-point accumulation of cGMP was measured after cell-lysis with 200 μl of 0.1 N HCl using Enzo life sciences cGMP ELISA kit (manufacturer's protocol).

Assay [3] has as its system anesthetized male SD rats. Kind of assay: In-vivo activity assay: peptide infusion in anesthetized rats (MAP, HR, PP, urine flow). The arrangement: species or system rat. As for the experimental part:
Male Sprague-Dawley (SD) rats (220-280 g) were obtained from Invivos, Singapore. Animals were acclimatized in the Animal Holding unit, NUS for 3 days before the experiment. The experiments were conducted under the guidance and approval of Institutional Animal Care and Use Committee, NUS (041/12).
The experiments were performed as described in Sridharan et al., [Biochem J 469 (2): 255-66 (2015)]. In brief, animals were anesthetized with sodium pentobarbital (60-70 mg/kg) and catheters were inserted in femoral artery, vein and urinary bladder. The body temperature of the animals was maintained using a thermostatic heat pad at 37° C. Continuous infusions (2 ml/h) of 0.2% BSA saline (with or without peptide) was administered through the femoral vein while a pressure transducer attached to the femoral artery recorded on-line changes in mean arterial pressure (MAP), heart rate (HR) and pulse pressure (PP). Urine was collected and the volume was measured after every 10 min. Experiments encompassed control (2×10 min), experimental (1×10 min) and recovery (4×10 min) periods. All animals were euthanized at the end of the experiment in carbon-di-oxide chambers.

Where [4] appears, read: 2.0 nmol/kg/min infusion, listed as DRDAND.
Setting [5] is: equimolar infusion (2 nmol/kg/min).

On to `CC[C@H](C)[C@@H]1NC(=O)[C@H](CC(=O)O)NC(=O)[C@H](CO)NC(=O)[C@H]([C@@H](C)O)NC(=O)[C@H](Cc2c[nH]cn2)NC(=O)[C@H](CO)NC(=O)[C@H]([C@@H](C)CC)NC(=O)[C@H](CCCNC(=N)N)NC(=O)[C@H](CC(=O)O)NC(=O)[C@H]([C@@H](C)CC)NC(=O)[C@H](CCCNC(=N)N)NC(=O)[C@H](CCCNC(=N)N)NC(=O)CNC(=O)[C@H](Cc2ccccc2)NC(=O)[C@@H](NC(=O)[C@H](CO)NC(=O)[C@@H](NC(=O)[C@H](CC(C)C)NC(=O)[C@H](CC(C)C)NC(=O)CN)[C@@H](C)CC)CSSC[C@@H](C(=O)N[C@@H](CCCNC(=N)N)C(=O)N[C@@H](Cc2c[nH]cn2)C(=O)O)NC(=O)CNC1=O` [^GRDK-Ring] (H-GLLISCFGRRIDRISHTSDIGCRH-OH; disulfide 6-22; N-terminus and C-terminus assumed), for which, in assay [1], the “Rate of generation of cGMP, Ratio compared ANP” value is 70.5 and the “Rate of generation of cGMP, Ratio compared wild type NPs” value is 5.0. Also, in assay [1] (EC50 concentration of peptide), the “Rate of generation of cGMP” value was 0.113 pmol cGMP/pmol peptide, the “rate of generation of cGMP compared to K-Ring” value is listed as “slightly increased rate of cGMP production” and the “time of peak / maximum accumulation of cGMP” value was 10 min. Also, in assay [2], the “NPR-A activation potency, Ratio compared ANP” value is reported as 2.9 and the “NPR-A activation potency, Ratio compared wild type NPs” value was −4.8. Besides, in assay [2] (cGMP response), the “fold higher potency compared to K-Ring” value amounted to 5 fold. In assay [3] (2 nmol/kg/min infusion), the “HR Rate of change per unit change in MAP” value stood at 2.82 and the “PP Rate of change per unit change in MAP” value turned out to be 0.7. Further, in assay [3] (2.0 nmol/kg/min infusion), the “Heart rate Peak response” value is −44.8±20.2 BPM and −44.8 ± 20.1 BPM; the “Heart rate Peak time” value came to 30 min; the “Mean arterial pressure Peak response” value was −11.3 ± 4.3 mmHg; the “Mean arterial pressure Peak time” value is 30 min. In addition, in assay [3] (2.0 nmol/kg/min infusion), the “Pulse pressure Peak time” value is reported as 20 min and the “Urine flow rate Peak response” value is less than 2 µL/min.
Turning to `CC[C@H](C)[C@@H]1NC(=O)[C@H](CCCNC(=N)N)NC(=O)[C@H](CC(=O)O)NC(=O)[C@H](CCSC)NC(=O)[C@H](CCCNC(=N)N)NC(=O)CNC(=O)CNC(=O)[C@H](Cc2ccccc2)NC(=O)[C@@H](NC(=O)[C@H](CO)NC(=O)[C@H](CO)NC(=O)[C@H](CCCNC(=N)N)NC(=O)[C@H](CCCNC(=N)N)NC(=O)[C@H](CC(C)C)NC(=O)[C@@H](N)CO)CSSC[C@@H](C(=O)N[C@@H](CC(N)=O)C(=O)N[C@@H](CO)C(=O)N[C@@H](Cc2ccccc2)C(=O)N[C@@H](CCCNC(=N)N)C(=O)N[C@@H](Cc2ccc(O)cc2)C(=O)O)NC(=O)CNC(=O)[C@H](CC(C)C)NC(=O)CNC(=O)[C@H](CO)NC(=O)[C@H](CCC(N)=O)NC(=O)[C@H](C)NC(=O)CNC1=O` [ANP, reference compound], in assay [3] (0.08 nmol/kg/min infusion), the “Heart rate Peak response” value is listed as −7.8 ± 2.4 BPM, the “Pulse pressure Peak response” value was −2.1 ± 1.5 mmHg, the “Urine flow rate Peak Time” value is 20 min and the “Urine flow rate Peak response” value was found to be 5.4 ± 1.4 µL/min. The “Mean arterial pressure Peak response” value in assay [3] (0.08 nmol/kg/min infusion, anesthetized rats) was −1.6 ± 1.5 mmHg. Also, in assay [3] (0.2 nmol/kg/min infusion), the “HR Rate of change per unit change in MAP” value amounted to 5.6; the “Heart rate Peak time” value is on record as 30 min; the “Mean arterial pressure Peak response” value was −10.1±0.8 mmHg and −10.1 ± 1.9 mmHg; the “Mean arterial pressure Peak time” value is listed as 30 min. Moreover, in assay [3] (0.2 nmol/kg/min infusion), the “PP Rate of change per unit change in MAP” value worked out at 0.5; the “Pulse pressure Peak response” value was −7.7±3.9 mmHg and −7.7±1.8 mmHg; the “Pulse pressure Peak time” value was 40 min; the “Urine flow rate Peak Time” value came out at 20 min. In addition, the “Urine flow rate Peak response” value in assay [3] (0.2 nmol/kg/min infusion) turned out to be 8.8 ± 1.3 µL/min.
`CC[C@H](C)[C@@H]1NC(=O)[C@H](CCCNC(=N)N)NC(=O)[C@H](CC(=O)O)NC(=O)[C@H](CCSC)NC(=O)[C@H](CCCNC(=N)N)NC(=O)[C@H](CCCNC(=N)N)NC(=O)[C@H](CC(=O)O)NC(=O)[C@H](Cc2ccccc2)NC(=O)[C@@H](NC(=O)[C@H](CO)NC(=O)[C@H](CO)NC(=O)[C@H](CCCNC(=N)N)NC(=O)[C@H](CCCNC(=N)N)NC(=O)[C@H](CC(C)C)NC(=O)[C@@H](N)CO)CSSC[C@@H](C(=O)N[C@@H](CC(N)=O)C(=O)N[C@@H](CO)C(=O)N[C@@H](Cc2ccccc2)C(=O)N[C@@H](CCCNC(=N)N)C(=O)N[C@@H](Cc2ccc(O)cc2)C(=O)O)NC(=O)CNC(=O)[C@H](CC(C)C)NC(=O)[C@H](CC(=O)O)NC(=O)[C@H](CO)NC(=O)[C@H](CCC(N)=O)NC(=O)[C@H](C)NC(=O)CNC1=O` [^DRDANP] (H-SLRRSSCFDRRMDRIGAQSDLGCNSFRY-OH; disulfide 7-23; N-terminus assumed): in assay [1], the “Rate of generation of cGMP, Ratio compared ANP” value is reported as 21.0; the “Rate of generation of cGMP, Ratio compared wild type NPs” value is 21.0; the “times slower activation kinetics compared to the wild type (ANP)” value is recorded as 2.6 times. In assay [1] (EC50 concentration of peptide), the “Rate of generation of cGMP” value was found to be 0.38 pmol cGMP/pmol peptide and the “time of peak / maximum accumulation of cGMP” value is 10 min. In assay [2], the “NPR-A activation potency, Ratio compared ANP” value was found to be 2.6 and the “NPR-A activation potency, Ratio compared wild type NPs” value is on record as 2.6. Besides, in assay [2] (cGMP response), the “fold drop in activity compared to ANP” value was determined as 3 fold. Further, in assay [3] (0.2 nmol/kg/min infusion), the “Heart rate Peak response” value is on record as −37.5±9.5 BPM, the “Heart rate Peak time” value is 30 min, the “Mean arterial pressure Peak response” value is −12.9±1.5 mmHg and the “Mean arterial pressure Peak time” value came out at 30 min. In addition, in assay [3] (0.2 nmol/kg/min infusion), the “Pulse pressure Peak time” value stood at 20 min, the “Urine flow rate Peak response” value was less than 2 µL/min and the diuresis result is “failed to induce diuresis”. In assay [3] (2 nmol/kg/min infusion), the “HR Rate of change per unit change in MAP” value was 4.5 and the “PP Rate of change per unit change in MAP” value turned out to be 0.5. For the same compound, in assay [3] (2.0 nmol/kg/min infusion), the “Heart rate Peak response” value was −66.6±14.6 BPM, the “Heart rate Peak time” value came out at 30 min, the “Mean arterial pressure Peak response” value was −18.3±2.3 mmHg and the “Mean arterial pressure Peak time” value was found to be 30 min. Moreover, in assay [3] (2.0 nmol/kg/min infusion), the “Pulse pressure Peak response” value is given as −7.9±1.8 mmHg, the “Pulse pressure Peak time” value was 20 min, the “Urine flow rate Peak Time” value is recorded as 20 min and the “Urine flow rate Peak response” value came to 18.7 ± 0.7 µL/min. Besides, in assay [3] (setting [4]), the “Heart rate Peak response” value was −66.6 ± 14.5 BPM, the “Mean arterial pressure Peak response” value is given as −18.4 ± 2.4 mmHg, the “Pulse pressure Peak response” value is on record as −8.0 ± 1.8 mmHg and the “Urine flow rate Peak response” value was 18.8 ± 0.7 µL/min. In assay [3] (setting [5]), the “diuresis compared to K-Ring^NSFRY” value is 2 fold and the “influence on HR compared to K-Ring^NSFRY” value is reported as 2 fold.
